Laboratory results taken from ChEMBL document CHEMBL1150468, “Sch 53823 and Sch 53825, novel fungal metabolites with phospholipase D inhibitory activity” (Bioorg Med Chem Lett, 1996).

Test: In vitro inhibitory activity in the fMLP-stimulated phospholipase (PLD) assay

Point of comparison: `CC(=O)Oc1cccc2c1[C@@H](OC(C)=O)[C@H]1O[C@H]1C21Oc2cccc3cccc(c23)O1`, IC50 17 µM. Against it:
- Oc1c(Cl)ccc2c1[C@@H](O)[C@H]1O[C@H]1C21Oc2cccc3cccc(c23)O1 — within 1.5-fold, 19 µM
- Oc1cccc2c1[C@@H](O)[C@H]1O[C@H]1C21Oc2cccc3cccc(c23)O1 — within 1.5-fold, 24 µM
- CC(=O)Oc1c(Cl)ccc2c1[C@@H](OC(C)=O)[C@H]1O[C@H]1C21Oc2cccc3cccc(c23)O1 — higher, > 50 µM
